# Values quoted from earlier work as cited in patent US20240197646A1, “DRUG DELIVERY SYSTEM AND METHODS OF USING THE SAME” (Axogen Corporation, priority 2022, published 2024).
# Conditions: stated reference level, no source or test given
structure (smiles),measurement,value
C=CC[C@@H]1/C=C(\C)C[C@H](C)C[C@H](OC)[C@H]2O[C@@](O)(C(=O)C(=O)N3CCCC[C@H]3C(=O)O[C@H](/C(C)=C/[C@@H]3CC[C@@H](O)[C@H](OC)C3)[C@H](C)[C@@H](O)CC1=O)[C@H](C)C[C@@H]2OC [FK506],toxic dose,about 5 mg/ml
